Test results published in patent US20250154144A1 (CHILDREN'S HOSPITAL MEDICAL CENTER, priority 2021, published 2025).
Where two headings read alike, the source gives them in different places.

Key:
THP1 cells = assay: Combination drug screening, Cell Titer Glo, 10 × 10 matrix, THP1 cells; type: cell-based; settings: THP1 cells; for Excess HSA Score: 10 × 10
MOLM14(D835Y) cells = type: cell-based; settings: MOLM14(D835Y) cells; for Excess HSA Score: 10 × 10
[1] = combination with (+)-BAY-1251152
[2] = combination with Eprenetapopt/APR-246
[3] = combination with Venetoclax (ABT-199)

With `CC(O)(c1cn2c(-c3ccnc(N[C@H]4CNCC[C@@H]4F)n3)cnc2cn1)C(F)(F)F` (single isomer, unassigned) [Compound 72] as the molecule, how does the “Excess HSA Score” value (THP1 cells; [1]) read?
Its value is −155.7.

What about the “Excess HSA Score” value (THP1 cells; combination with AMG-232) of the same molecule?
Its value is 364.

What about the “Excess HSA Score” value (THP1 cells; combination with AZD-5363) of the same molecule?
Its value is −371.3.

And the “Excess HSA Score” value (THP1 cells; [2])?
The value was 594.2926.

And the “Excess HSA Score” value (THP1 cells; combination with Ivosidenib)?
The value was 175.5.

And the “Excess HSA Score” value (THP1 cells; combination with Lenalidomide)?
Its value is 175.9.

What about the “Excess HSA Score” value (THP1 cells; combination with Palbociclib) of the same molecule?
The value was −319.

And the “Excess HSA Score” value (THP1 cells; combination with Prednisolone)?
Its value is 201.6.

And the “Excess HSA Score” value (THP1 cells; combination with SNDX-5613)?
The value was 342.4.

And the “Excess HSA Score” value (THP1 cells; combination with TNO-155)?
The value was 908.1.

What about the “Excess HSA Score” value (THP1 cells; combination with Trametinib) of the same molecule?
The value was 354.3.

And the “Excess HSA Score” value (THP1 cells; combination with Ulixertinib)?
Its value is 1146.

And the “Excess HSA Score” value (THP1 cells; [3])?
The value was −1130.

What about the Comments (THP1 cells; combination with Ivosidenib) of the same molecule?
The Comments was “Antagonistic”.

And the Comments (THP1 cells; [3])?
Its Comments is “Synergistic”.

What about the “Excess HSA Score” value (MOLM14(D835Y) cells; [1]) of the same molecule?
Its value is 179.

And the “Excess HSA Score” value (MOLM14(D835Y) cells; combination with AMG-232)?
Its value is −165.4.

And the “Excess HSA Score” value (MOLM14(D835Y) cells; combination with AZD-5363)?
Its value is −687.9.

And the “Excess HSA Score” value (MOLM14(D835Y) cells; [2])?
Its value is −80.14.

And the “Excess HSA Score” value (MOLM14(D835Y) cells; combination with Ivosidenib)?
The value was −168.3.

What about the “Excess HSA Score” value (MOLM14(D835Y) cells; combination with Lenalidomide) of the same molecule?
The value was 407.4.

And the “Excess HSA Score” value (MOLM14(D835Y) cells; combination with Palbociclib)?
Its value is −390.1.

And the “Excess HSA Score” value (MOLM14(D835Y) cells; combination with Prednisolone)?
Its value is 717.2.

What about the “Excess HSA Score” value (MOLM14(D835Y) cells; combination with SNDX-5613) of the same molecule?
Its value is −77.23.

And the “Excess HSA Score” value (MOLM14(D835Y) cells; combination with TNO-155)?
The value was −797.6.

What about the “Excess HSA Score” value (MOLM14(D835Y) cells; combination with Trametinib) of the same molecule?
Its value is 218.5.

What about the “Excess HSA Score” value (MOLM14(D835Y) cells; combination with Ulixertinib) of the same molecule?
Its value is 672.6.

What about the “Excess HSA Score” value (MOLM14(D835Y) cells; [3]) of the same molecule?
The value was −1396.

And the Comments (MOLM14(D835Y) cells; [1])?
Its Comments is “Antagonistic”.

And the Comments (MOLM14(D835Y) cells; [3])?
Its Comments is “Synergistic”.
